The NIST ThermoML archive (doi:10.1016/j.jct.2013.04.015)
± gives the expanded uncertainty stated by the source.

Experiment: xn = mol fraction of the nth substance listed
Conditions: for surface tension liquid-gas: Wilhelmy plate method; for mass density: 101 kPa, Liquid, Vibrating tube method

Question: What does the source list for `CCCCn1cc[n+](C)c1.C[C@H](O)C(=O)[O-]` [1-butyl-3-methylimidazolium L-lactate] + CCCCO?
Answer: surface tension liquid-gas (298.15 K, x1 = 0.01): 24.18 ± 0.3 mN/m; surface tension liquid-gas (298.15 K, x1 = 0.0297): 24.53 ± 0.3 mN/m; surface tension liquid-gas (298.15 K, x1 = 0.0482): 24.7 ± 0.3 mN/m; surface tension liquid-gas (298.15 K, x1 = 0.0601): 24.83 ± 0.3 mN/m; surface tension liquid-gas (298.15 K, x1 = 0.0888): 25.1 ± 0.3 mN/m; surface tension liquid-gas (298.15 K, x1 = 0.1001): 25.17 ± 0.3 mN/m; surface tension liquid-gas (298.15 K, x1 = 0.1996): 26.2 ± 0.3 mN/m; surface tension liquid-gas (298.15 K, x1 = 0.3016): 27.25 ± 0.3 mN/m; surface tension liquid-gas (298.15 K, x1 = 0.4004): 28.42 ± 0.31 mN/m; surface tension liquid-gas (298.15 K, x1 = 0.4997): 29.67 ± 0.31 mN/m; surface tension liquid-gas (298.15 K, x1 = 0.5889): 31.11 ± 0.32 mN/m; surface tension liquid-gas (298.15 K, x1 = 0.6979): 32.64 ± 0.32 mN/m; surface tension liquid-gas (298.15 K, x1 = 0.8012): 34.73 ± 0.33 mN/m; surface tension liquid-gas (298.15 K, x1 = 0.8747): 36.6 ± 0.34 mN/m; surface tension liquid-gas (298.15 K, x1 = 1): 42.92 ± 0.37 mN/m; mass density (298.15 K, x1 = 0.0999): 875.7 ± 0.4 kg/m3; mass density (298.15 K, x1 = 0.1996): 927.3 ± 0.4 kg/m3; mass density (298.15 K, x1 = 0.303): 968.1 ± 0.4 kg/m3; mass density (298.15 K, x1 = 0.3998): 997.8 ± 0.4 kg/m3; mass density (298.15 K, x1 = 0.5): 1024.2 ± 0.4 kg/m3; mass density (298.15 K, x1 = 0.6002): 1044.6 ± 0.4 kg/m3; mass density (298.15 K, x1 = 0.7001): 1060.8 ± 0.4 kg/m3; mass density (298.15 K, x1 = 0.8): 1076.4 ± 0.4 kg/m3; mass density (298.15 K, x1 = 0.8999): 1091.8 ± 0.5 kg/m3; mass density (298.15 K, x1 = 1): 1111.2 ± 0.5 kg/m3; surface tension liquid-gas (308.15 K, x1 = 0.0101): 23.63 ± 0.3 mN/m; surface tension liquid-gas (308.15 K, x1 = 0.0295): 23.87 ± 0.3 mN/m; surface tension liquid-gas (308.15 K, x1 = 0.0495): 24.18 ± 0.3 mN/m; surface tension liquid-gas (308.15 K, x1 = 0.0604): 24.22 ± 0.3 mN/m; surface tension liquid-gas (308.15 K, x1 = 0.0884): 24.59 ± 0.3 mN/m; surface tension liquid-gas (308.15 K, x1 = 0.0999): 24.67 ± 0.3 mN/m; surface tension liquid-gas (308.15 K, x1 = 0.1999): 25.68 ± 0.3 mN/m; surface tension liquid-gas (308.15 K, x1 = 0.3008): 26.81 ± 0.3 mN/m; surface tension liquid-gas (308.15 K, x1 = 0.3994): 28.18 ± 0.31 mN/m; surface tension liquid-gas (308.15 K, x1 = 0.4989): 29.41 ± 0.31 mN/m; surface tension liquid-gas (308.15 K, x1 = 0.5877): 30.83 ± 0.32 mN/m; surface tension liquid-gas (308.15 K, x1 = 0.695): 32.5 ± 0.32 mN/m; surface tension liquid-gas (308.15 K, x1 = 0.7981): 34.33 ± 0.33 mN/m; surface tension liquid-gas (308.15 K, x1 = 0.8807): 36.48 ± 0.34 mN/m; surface tension liquid-gas (308.15 K, x1 = 1): 42.37 ± 0.37 mN/m; mass density (308.15 K, x1 = 0.0999): 868.3 ± 0.4 kg/m3; mass density (308.15 K, x1 = 0.1996): 920.3 ± 0.4 kg/m3; mass density (308.15 K, x1 = 0.303): 960.8 ± 0.4 kg/m3; mass density (308.15 K, x1 = 0.3998): 990.5 ± 0.4 kg/m3; mass density (308.15 K, x1 = 0.5): 1017.2 ± 0.4 kg/m3; mass density (308.15 K, x1 = 0.6002): 1037.4 ± 0.4 kg/m3; mass density (308.15 K, x1 = 0.7001): 1053.9 ± 0.4 kg/m3; mass density (308.15 K, x1 = 0.8): 1069 ± 0.4 kg/m3; mass density (308.15 K, x1 = 0.8999): 1084.2 ± 0.5 kg/m3; mass density (308.15 K, x1 = 1): 1104.2 ± 0.5 kg/m3; surface tension liquid-gas (318.15 K, x1 = 0.0101): 23.08 ± 0.3 mN/m; surface tension liquid-gas (318.15 K, x1 = 0.0296): 23.25 ± 0.3 mN/m; surface tension liquid-gas (318.15 K, x1 = 0.0485): 23.59 ± 0.3 mN/m; surface tension liquid-gas (318.15 K, x1 = 0.061): 23.71 ± 0.3 mN/m; surface tension liquid-gas (318.15 K, x1 = 0.0903): 23.93 ± 0.3 mN/m; surface tension liquid-gas (318.15 K, x1 = 0.1004): 24.17 ± 0.3 mN/m; surface tension liquid-gas (318.15 K, x1 = 0.2004): 25.18 ± 0.3 mN/m; surface tension liquid-gas (318.15 K, x1 = 0.3011): 26.53 ± 0.3 mN/m; surface tension liquid-gas (318.15 K, x1 = 0.3986): 28 ± 0.31 mN/m; surface tension liquid-gas (318.15 K, x1 = 0.4989): 29.33 ± 0.31 mN/m; surface tension liquid-gas (318.15 K, x1 = 0.59): 30.68 ± 0.32 mN/m; surface tension liquid-gas (318.15 K, x1 = 0.688): 32.24 ± 0.32 mN/m; surface tension liquid-gas (318.15 K, x1 = 0.7993): 34.23 ± 0.33 mN/m; surface tension liquid-gas (318.15 K, x1 = 0.8735): 36.03 ± 0.34 mN/m; surface tension liquid-gas (318.15 K, x1 = 1): 42.01 ± 0.37 mN/m; mass density (318.15 K, x1 = 0.0999): 859.6 ± 0.4 kg/m3; mass density (318.15 K, x1 = 0.1996): 913 ± 0.4 kg/m3; mass density (318.15 K, x1 = 0.303): 953.9 ± 0.4 kg/m3; mass density (318.15 K, x1 = 0.3998): 983.4 ± 0.4 kg/m3; mass density (318.15 K, x1 = 0.5): 1010.1 ± 0.4 kg/m3; mass density (318.15 K, x1 = 0.6002): 1030.9 ± 0.4 kg/m3; mass density (318.15 K, x1 = 0.7001): 1047.5 ± 0.4 kg/m3; mass density (318.15 K, x1 = 0.8): 1062 ± 0.4 kg/m3; mass density (318.15 K, x1 = 0.8999): 1077.3 ± 0.5 kg/m3; mass density (318.15 K, x1 = 1): 1097.7 ± 0.5 kg/m3

Question: What does the source list for `CCCCO` [butan-1-ol] + CCCCn1cc[n+](C)c1.C[C@H](O)C(=O)[O-]?
Answer: surface tension liquid-gas (298.15 K, x2 = 0): 23.89 ± 0.3 mN/m; mass density (298.15 K, x2 = 0): 805.7 ± 0.4 kg/m3; surface tension liquid-gas (308.15 K, x2 = 0): 23.46 ± 0.3 mN/m; mass density (308.15 K, x2 = 0): 798 ± 0.4 kg/m3; surface tension liquid-gas (318.15 K, x2 = 0): 22.62 ± 0.3 mN/m; mass density (318.15 K, x2 = 0): 790.1 ± 0.4 kg/m3

Question: With `O` [water] + CCCCn1cc[n+](C)c1.C[C@H](O)C(=O)[O-] as the compound, how does the surface tension liquid-gas (298.15 K, x2 = 0) read?
Answer: 71.85 ± 0.78 mN/m

Question: And the surface tension liquid-gas (308.15 K, x2 = 0)?
Answer: 70.48 ± 0.77 mN/m

Question: And the mass density (308.15 K, x2 = 0)?
Answer: 994.1 ± 0.9 kg/m3

Question: What about the surface tension liquid-gas (318.15 K, x2 = 0) of the same compound?
Answer: 68.89 ± 0.75 mN/m

Question: With `CCO` [ethanol] + CCCCn1cc[n+](C)c1.C[C@H](O)C(=O)[O-] as the compound, how does the surface tension liquid-gas (298.15 K, x2 = 0) read?
Answer: 22.11 ± 0.31 mN/m

Question: What about the mass density (298.15 K, x2 = 0) of the same compound?
Answer: 784.7 ± 0.4 kg/m3

Question: And the surface tension liquid-gas (308.15 K, x2 = 0)?
Answer: 21.13 ± 0.3 mN/m

Question: And the mass density (308.15 K, x2 = 0)?
Answer: 776.2 ± 0.4 kg/m3

Question: And the surface tension liquid-gas (318.15 K, x2 = 0)?
Answer: 20.48 ± 0.3 mN/m

Question: What about the mass density (318.15 K, x2 = 0) of the same compound?
Answer: 767 ± 0.4 kg/m3
